Results taken from patent US12173042B2, “Methods of treating cancers with CT45 targeted therapies” (The University of Chicago, priority 2016, dated 2024).
“Also recorded” adds a separate entry of the source.

How the values were obtained:
Assay type in all cases: cell-based, human
[1] = tested on: OVCAR5 stably overexpressing CT45; experiment: Clonogenic survival assay, OVCAR5; conditions: CT45 expressing cells treated with carboplatin
Method: Cells were treated with different carboplatin concentrations for 48 hours and 7-9 days after treatment colonies were counted and plotted as a percent of control on a logarithmic scale.
Cells were treated with different carboplatin concentrations for 48-72 hours. 2000 cells per 6-well were then plated for 7-9 days in drug-free medium. Grown colonies were fixed and stained with 1% formaldehyde, 1% methanol and 0.05% Crystal Violet for 20 min. Colony numbers were then counted with the Colony Area ImageJ plugin and plotted as percent of control on a logarithmic scale.

[2] = tested on: γH2AX and cleaved caspase-3 in CT45-expressing cancer cells; experiment: Western blot of γH2AX and cleaved caspase-3; conditions: day 5
Method: (§1) Cells were treated with 5 μM carboplatin plus 1.5 nM paxlitaxel for 3 days and then incubated an additional 2 days without drug prior to collection on day 5. Both adherent and non-adherent cells were collected in RIPA buffer (25 mM Tris-HCl pH 7.6, 150 mM NaCl, 1% NP-40, 0.5% sodium deoxycholate, 0.1% SDS) supplemented with protease inhibitor cocktail (Thermo Scientific) and phosphatase inhibitor cocktail (Sigma). Lysates were incubated for 30 min on ice before centrifugation (15 min, 14 000 rpm, 4° C.). The quantity of protein was determined by BCA reagent (Pierce). The extracts were analyzed by SDS-PAGE on a 4-20% gradient gel (Bio-Rad).
as §1, with “indicated drugs” for “5 μM carboplatin plus 1.5 nM paxlitaxel”, “media was changed. On indicated” for “incubated an additional 2 days without drug prior to collection on”, “of collection, both” for “5. Both”, “ice, sonicated and cleared by” for “ice before”

[3] = tested on: DNA damage in CT45-expressing cells; experiment: Comet assay; conditions: day 5
Method: Cells were treated with carboplatin for 3 days and then incubated an additional 2 days without drug. The comet assay was performed on day 5 as previously described39. Briefly, 2.5e4 cells/condition were resuspended in 70 uL 0.5% low melting point agarose (LMPA) at 37 C and plated on a glass slide precoated with 1% agarose in PBS. Samples were allowed to solidify at 4 C for 20 minutes with a square cover glass. The cover class was gently removed and a second 70 uL layer of 0.5% LMPA was applied and again allowed to solidify. The cover glass was removed and the slides immersed in Comet Lysis solution (2.5M NaCl, 100 mM EDTA, 10 mM Tris, 0.015% Triton X-100, pH 10) for one hour at 4 C and from this point forward protected from light. After lysis, the slides were equilibrated for 20 minutes in Comet Electrophoresis Buffer (0.3N NaOH, 1 mM EDTA, […]) at 4 C, and then run at 25V for 20 minutes. […] At least 100 cells were quantified/sample using the software OpenComet40. […]
Cells were treated with carboplatin for 3 days and then incubated an additional 2 days without drug. […] At least 100 cells were quantified/sample using the software OpenComet. […]

OVCAR5-V5-CT45 cells = experiment: Nuclear size (DAPI); conditions: cells expressing CT45, day 5, carboplatin 5 μM
Method: FIG. 13A-I. CT45 interferes with chromatin dynamics after DNA damage. A, Western blot analysis of OVCAR5 and OVKATE cell line pairs treated with carboplatin (5 μM). Day 3. B, Immunofluorescence staining of KAP1-S824 γH2AX and DAPI in OVCAR5-V5 and OVCAR5-V5-CT45 cell line pair with or without carboplatin treatment (5 μM) at day 3, 5, and 7. Data are means+/−s.e.m. of 5 independent replicates (right panel). Representative cells are shown left. C, CT45 positive 59M cells were collected and processed for a chromatin segregation assay as detailed in the Methods. PP4 complex members, KAP1, and HDAC2 were detected by western blot. D, Volcano plot of chromatin-immunoprecipitation mass spectrometry (ChIP-MS) results for the V5-tag in OVCAR5-V5-CT45 vs. OVCAR5-V5 cell line. Fold enrichment of V5-tagged CT45 over control cell line (V5 tag alone) is plotted against the t-test p-value (−log10). Dashed lines indicate significance thresholds (FDR<0.01, s0=2). […] Most significant pathways are ranked by enrichment false-discovery rate. F, Fold change in nuclear sizes of OVCAR5-V5-CT45 and OVCAR5-V5 cells at day 5 with carboplatin (5 μM) treatment normalized to untreated cells. Representative DAPI images are shown in upper panel. Bar plots represent nuclear sizes from 5 independent experiments. Scale ar=[…]. Data are means+/−s.e.m. […]

SMILES: N.N.O=C([O-])C1(C(=O)[O-])CCC1.[Pt+2] [carboplatin]
- colony formation [1]: significantly reduced
- levels of cleaved caspase-3 [2]: increased levels
- levels of γH2AX [2]: increased levels
- DNA damage (tail moment) [3]: higher levels of DNA damage; also recorded: more DNA damage
- nuclear size (OVCAR5-V5-CT45 cells): larger nuclei
